Source: patent publication US9872840B2, “Effect of garcinol in delaying the progression of diabetic nephropathy” (Delhi Institute of Pharmaceutical Sciences and Research, priority 2013, dated 2018)

Assays:
[1] = tested on: STZ diabetic rats; experiment: Fasting and post prandial blood glucose in STZ diabetic rats; type: in vivo, rat; parameters: Reduction of post prandial glucose: concentration or dose not given beside the values; conditions: for Reduction of fasting blood glucose / Reduction of post prandial glucose: 8 weeks treatment; for Reduction of post prandial glucose: compared to diabetic group; for Blood glucose, fasting, before treatment / Blood glucose, post prandial, before treatment: baseline before treatment; for Blood glucose, fasting, before treatment / Blood glucose, post prandial, before treatment / Blood glucose, fasting, after treatment / Blood glucose, post prandial, after treatment: mean ± S.E.M., eight animals; for Blood glucose, fasting, after treatment / Blood glucose, post prandial, after treatment: once daily for 8 weeks, garcinol 200 mg/kg, olmesartan 6 mg/kg/day, glimepiride 1 mg/kg/day
Description: (§1) The Garcinol used for the experimental studies was bought from Sami Labs, Hyderabad. It was administered at the dose of 200 mg/kg dispersed in water with 1% CMC. Further, the experimental procedures were conducted according to the Institutional Animal Ethical Committee (protocol no. DIPSAR/IAEC/2009/01) and CPCSEA guidelines. All rats were housed under conventional conditions with controlled temperature, humidity and light (12 hours light-dark cycle), and were provided with a standard commercial diet and water (ad libitum). Healthy albino rats of Wistar strain were kept for breeding. Diabetes was induced by administration of streptozotocin (STZ, 90 mg/kg, i.p.) to a group of 2 day old pups. Age-matched control rats were given an equal volume of vehicle and considered as ‘Normal’ group of rats. Six weeks after injection, the blood glucose level was measured from the tail vein. Rats with a fasting blood glucose level over 160 mg/dl were considered as diabetic.
(§2) After 6 weeks, four groups of animals, each comprising of 8 animals were made. The groups were assigned to receive vehicle or garcinol (200 mg/kg dispersed in 1% CMC); Olmesartan (6 mg/kg/day) and Glimepiride (1 mg/kg/day) once daily for 8 weeks. After the final drug administration, body weight was measured and blood samples were collected in both fasting and post prandial conditions. The kidney of treated and untreated animals were isolated and fixed in 10% buffered formalin solution to prepare paraffin sections.
However, the decrease was less than antidiabetic reference glimepiride treatment (˜27%). Moreover, the reduction of post prandial glucose with garcinol treatment (˜36%) was more than olmesartan (˜10%) but was lower than observed with glimepiride treatment (almost 43%) when compared to diabetic group.

[2] = tested on: STZ diabetic rats; experiment: Kidney histopathology, glomerulosclerotic index (periodic acid-Schiff); type: in vivo, rat; conditions: 8 weeks; for GSI (glomerulosclerotic index): kidney of STZ diabetic rats, sclerosis graded 0 to 4, garcinol 200 mg/kg, olmesartan 6 mg/kg, glimepiride 1 mg/kg
Excerpt: (§3) Kidney sections were stained with periodic acid-Schiff's reagent and Masson's modified trichrome to assess glomerulosclerosis and collagenous tubulointerstitial matrix, respectively.
In 4 μm kidney sections stained with periodic acid-Schiff's reagent, 150 glomeruli from each animal were examined. The extent of sclerosis in each glomerulus was subjectively graded on a scale of 0 to 4, with the following grades: grade 0 normal, grade 1 sclerotic area <25% (minimal), grade 2 sclerotic area 25-50% (moderate), grade 3 sclerotic area 50-75% (moderate to severe) and grade 4 sclerotic area 75-100% (severe). A glomerulosclerotic index was then calculated using the formula: […]
Where GSI is glomerulosclerotic index, Fi is the % of glomeruli in the rat with a given score (i).

[3] = tested on: STZ diabetic rats; experiment: Tubulointerstitial matrix index (Masson's trichrome); type: in vivo, rat; conditions: kidney of STZ diabetic rats, 8 weeks; semi-quantified; garcinol 200 mg/kg, olmesartan 6 mg/kg, glimepiride 1 mg/kg
Description: as §3
The accumulation of matrix within the tubulointerstitial was assessed on Masson's trichrome stained sections. Blue area on a trichrome-stained section was selected for its color range and the proportional area of tissue with this range of color was then semi-quantified as tubulointerstitial matrix index (TIMI).

[4] = tested on: STZ diabetic rats; experiment: DNA fragmentation assay (TUNEL) for apoptosis in kidney; type: in vivo, rat; conditions: for Apoptosis: kidney of STZ diabetic rats, 8 weeks, garcinol 200 mg/kg, olmesartan 6 mg/kg, glimepiride 1 mg/kg
Description: For detection and localization of apoptosis in kidney, the technique of terminal deoxynucleotidyl transferase-mediated dUTP nick end labeling (TUNEL) (Apo-BrdU-IHC™ In Situ DNA Fragmentation Assay Kit, Biovison, USA) were employed. Briefly, sections were deparaffinized, hydrated, and digested with proteinase K (20 μg/ml), and then added biotinylated dUTP to the 3′ end of DNA fragments by incubating sections in 0.05 mol/l Tris-HCl buffer (pH 7.6) with 0.03 U/μl TdT and 0.04 nmol/μl biotin-11-dUTP at 37° C. for 1 h. The sections were rinsed in PBS. Endogenous peroxidase was blocked with 0.3% H2O2 in distilled H2O. The sections were rinsed with PBS and covers with 2% blocking solution in 0.1 mol/l sodium maleate to reduce background staining. The sections were then incubated with avidin-peroxidase complexes in PBS (1:50) for 30 min and rinsed with PBS (3×5 min). Peroxidase activity was visualized with 3,3′-diaminobenzidine until the brown product was clearly visible. The sections were then counterstained with methyl green. The positive apoptotic cells were the cells with brown nucleus 2.10.

[5] = tested on: STZ diabetic rats; experiment: Hemodynamic parameters by tail cuff apparatus; type: in vivo, rat
Description: Hemodynamic parameters were measured using tail cuff apparatus (Non-invasive measurement of Blood Pressure-Kent Scientific, USA). Garcinol was also observed to improve the systolic, diastolic and mean Blood Pressure.

[6] = tested on: rat nephrin; experiment: Immunohistochemistry for nephrin in kidney; type: in vivo; conditions: kidney of STZ diabetic rats, 8 weeks; garcinol 200 mg/kg, olmesartan 6 mg/kg, glimepiride 1 mg/kg
Description: Immunohistochemistry was done as previously described according to a modified method using a Polyclonal (C-Terminus) Antibody which is identical to rat nephrin. These experiments were done using 4 micron […] kidney sections, as previously reported. Paraffin-embedded tissues sections were deparaffinized in microwave oven for 3 minutes. The sections were rehydrated in graded series of xylene and alcohols. Endogenous peroxidase activity was blocked by 3% hydrogen peroxide in distilled water for 15 minutes. Antigen retrieval was achieved by steam heating in a solution of citrate buffer, pH 6.0 for 30 minutes. Sections were blocked with 10% normal goat serum for polyclonal antibodies. Sections were then incubated for one hour with primary antibody Polyclonal (C-Terminus) Antibody which is identical to rat nephrin. The sections were then incubated in avidin-biotin complex at 1:25 dilution for 30 min at room temperature and developed using diaminobenzidine (DAB) as chromogen. After washing, the sections were counter-stained with hematoxylin and coverslipped. Negative controls were carried out by incubation in the absence of the primary antibody. The quantification of nephrin was done using point counting technique for each animal as described in established method. Davis B J, Johnston C I, Burrell, L M, Burns W C, Kubota E, Cao Z, Cooper M E, Allen T J. Renoprotective effects of vasopeptidase inhibition in an experimental model of diabetic nephropathy. Diabetologia. 2003; 46(7): 961-71.

[7] = tested on: STZ diabetic rats; experiment: Homeostatic model assessment (HOMA-Index, β-cell function) in STZ diabetic rats; type: in vivo, rat; conditions: STZ diabetic rats after treatment; mean ± S.E.M., five animals
Excerpt: The homeostatic model assessment (HOMA) is a method used to quantify insulin resistance and beta-cell function (Homeostasis model assessment: insulin resistance and beta-cell function from fasting plasma glucose and insulin concentrations in man. Diabetologia 28: 412-9.). The approximating equation for insulin resistance, in the early model, used a fasting plasma sample, and was derived by use of the insulin-glucose product, divided by a constant. HOMA-IR=(Glucose×Insulin)/405;HOMA-% B=([…])/(Glucose-63)
Where IR is insulin resistance and % B is the β-cell function where Glucose is given in mg/dl and Insulin is given in μU/mL (both during fasting). Garcinol inhibited insulin resistance assessed by HOMA-Index with significance when compared with the diabetic group.

[8] = tested on: STZ diabetic rats; experiment: Renal function and biochemical parameters in plasma/serum of STZ diabetic rats; type: in vivo, rat; conditions: 8 weeks, garcinol 200 mg/kg, olmesartan 6 mg/kg, glimepiride 1 mg/kg
Description: as §1, §2
Biochemical estimation for glucose, insulin, albumin and total proteins; glomerular proteins (viz β-2 microglobulin, serum cystatin c and serum creatinine) for the determination of GFR; inflammatory cytokines and growth factors like Tumor necrosis factor (TNF-α), Nitric Oxide (NO), Transforming growth factor (TGF-β1) and Vascular endothelial growth factor (VEGF) and kidney specific molecular markers involving adiponectin and erythropoietin were made in plasma/serum.

[9] = kidney of diabetic rats, FIG. 4

## C=C(C)[C@@H](CC=C(C)C)C[C@@]12C[C@@H](CC=C(C)C)C(C)(C)[C@@](CC=C(C)C)(C(=O)C(C(=O)c3ccc(O)c(O)c3)=C1O)C2=O [Garcinol]
[1]
  Reduction of fasting blood glucose: ~18%
  Reduction of post prandial glucose: ~36%
  Blood glucose, fasting, before treatment: 166.2 ± 4.9 mg/dL
  Blood glucose, post prandial, before treatment: 287 ± 24.7 mg/dL
  Blood glucose, fasting, after treatment: 136.2 ± 5.86 mg/dL
  Blood glucose, post prandial, after treatment: 190 ± 5.27 mg/dL
[2]
  GSI (glomerulosclerotic index): 1.4
[3]
  TIMI (tubulointerstitial matrix index): 2
[4]
  Apoptosis: 20 % FA
[5]; after Garcinol administration
  Diastolic blood pressure, after Garcinol administration: 112
  Mean blood pressure, after Garcinol administration: 125
  Systolic blood pressure, after Garcinol administration: 153
[5]; before treatment
  Diastolic blood pressure, before treatment: 127
  Mean blood pressure, before treatment: 139
  Systolic blood pressure, before treatment: 165
[6]
  Nephrin: 50 % FA
[7]
  % BETA-CELL FUNCTION: 31.4 ± 3.17
  HOMA-INDEX: 1.55 ± 0.0827
[8]
  Adiponectin: 3.297 ± 0.56 µg/mL
  Beta-2 microglobulin (GFR): 0.3488 ± 0.12 µg/mL
  Erythropoietin: 0.3508 ± 0.029 mlU/ml
  Nitric Oxide: 0.32 ± 0.026 nmol/µL
  Plasma Insulin: 12.13 ± 1.17 ng/mL
  Serum Creatinine (GFR): 1.804 ± 0.36 mg/dL
  Serum CystatinC (GFR): 0.4098 ± 0.028 ng/mL
  TGF-β: 3.908 ± 0.82 pg/mL
  TNF-α: 0.04059 ± 0.0092 pg/mL
  Total Proteins: 2.05 ± 0.14 mg/mL
  VEGF: 57.21 ± 3.89 pg/mL

## CCCc1nc(C(C)(C)O)c(C(=O)OCc2oc(=O)oc2C)n1Cc1ccc(-c2ccccc2-c2nnn[nH]2)cc1 [Olmesartan, olmesartan medoxomil]
[1]
  Reduction of fasting blood glucose: 14%
  Reduction of post prandial glucose: ~10%
  Blood glucose, fasting, before treatment: 162.7 ± 4.34 mg/dL
  Blood glucose, post prandial, before treatment: 288 ± 6.82 mg/dL
  Blood glucose, fasting, after treatment: 139.7 ± 5.05 mg/dL
  Blood glucose, post prandial, after treatment: 259 ± 7.16 mg/dL
[2]
  GSI (glomerulosclerotic index): 1.4
[2]; [9]
  Histopathological changes in kidney (qualitative): improvement in tubular injury was visible
[3]
  TIMI (tubulointerstitial matrix index): 1
[4]
  Apoptosis: 40 % FA
[4]; [9]
  DNA fragmentation / apoptosis in kidney (qualitative): decrease in the DNA fragmentation was clearly observed qualitatively
[6]
  Nephrin: 62.5 % FA
[7]
  % BETA-CELL FUNCTION: 21.7 ± 1.98
  HOMA-INDEX: 1.7 ± 0.095
[8]
  Adiponectin: 0.93 ± 0.18 µg/mL
  Beta-2 microglobulin (GFR): 0.6529 ± 0.21 µg/mL
  Erythropoietin: 0.2657 ± 0.047 mlU/ml
  Nitric Oxide: 0.34 ± 0.097 nmol/µL
  Plasma Insulin: 12.74 ± 1.48 ng/mL
  Serum Creatinine (GFR): 2.063 ± 0.41 mg/dL
  Serum CystatinC (GFR): 0.4617 ± 0.048 ng/mL
  TGF-β: 5.963 ± 0.896 pg/mL
  TNF-α: 0.05665 ± 0.013 pg/mL
  Total Proteins: 2.123 ± 0.11 mg/mL
  VEGF: 66.3 ± 1.14 pg/mL
